Source: patent publication US8772286B2, “MK2 inhibitors” (Merck Sharp & Dohme B.V., priority 2009, dated 2014)
Values after ≈ are worked out from the molar mass of the structure shown. Where two headings read alike, the source gives them in different places.

Columns and labels:
[1] = Solubility determination of MK2 inhibitors (kinetic aqueous solubility, UPLC); assay type: physicochemical; conditions: aqueous buffer (system solution from pION inc.), 22 °C, pH 7.4, aqueous buffer, kinetic from dmso stock
Method: The solubility can be determined using the Automated Kinetic Aqueous Solubility (AKASol) method, which is an HPLC-UV based method. The method is derived from the classical saturated shake-flask solubility method which has been adapted to the 96-well microtitre plate format, allowing the use of DMSO stock solutions. The solubility is determined by measuring the amount of compound in a saturated aqueous solution, quantified by an external calibration curve of the compound dissolved in DMSO. The solubility (mg/L) is measured at pH 7.4, at room temperature and the final concentration of DMSO in the sample solution is 1%.
The samples were prepared from 10 mM DMSO stock solutions. For each compound under investigation, a volume (9 μL) of the DMSO stock solution is transferred from the DMSO stock solution into 891 μL of buffer solution (system solution from pION inc.) in a 96 deep well plate, which equates to approximately 1% DMSO, using the Packard Multiprobe II robot liquid handling system. The pH of the buffer is manually adjusted at pH 7.4 by adding NaOH. This procedure is done in duplicate for each sample. After shaking for 24 h on a vortex mixer (Heidolph, Titramax 101) at 450 rpm and at room temperature (21-23° C.), 300 uL of the incubated sample is transferred from the deep well plate to a filter plate (PVDF, 0.45 um) on a vacuum manifold. To the filtrate (150 uL) 1-propanol (50 uL) is added to suppress precipitation and this solution is then analysed by UPLC. The solubility is determined using the calibration line previously prepared.
Preparation of the Standards and Built up of a Calibration Line
The calibration line is built with different concentrations of the test compound (standards), prepared from the same 10 mM DMSO stock solution. A volume (7 uL) from the same DMSO stock solution was diluted with DMSO (273 uL) leading to a solution with concentration of 0.25 mM. From this solution, three different injection volumes (0.2, 1, 1.8 uL) were injected on UPLC. The respective peak areas are plotted against amount of compound to build up the calibration line. The calibration line is used to determine the amount of dissolved compound in each sample, selecting the injection that gave peak areas closest to the peak area range of the calibration standards.

MK2 enzyme = biological target: T1, MK2 enzyme (Homo sapiens, UniProt P49137); test: MK2 enzyme activity, IMAP fluorescence polarization assay; assay type: biochemical
T1 construct: MK2 enzyme (active enzyme (peptide 46-end (Millipore))); purchased Millipore
Description: In another assay the MK2 kinase activity can be determined by using an IMAP assay (Immobilized Metal Assay for Phosphochemicals—based coupled assay). IMAP is a homogeneous fluorescence polarization (FP) assay based on affinity capture of phosphorylated peptide substrates. IMAP uses fluorescein-labeled peptide substrates that, upon phosphorylation by a protein kinase, bind to so called IMAP nanoparticles, which are derivatized with trivalent metal complexes. […] In such an assay, MK2 phosphorylates a fluorescein-labeled peptide substrate (see example 14).
MK2 enzyme activity is measured using the IMAP (immobilized metal ion affinity-based fluorescence polarization) assay as outlined below.
The enzyme is diluted to 100 U/mL the day before use in KR buffer (10 mM Tris-HCl, 10 mM MgCl2, 0.01% Tween-20, 0.05% NaN3, 2 mM DTT, pH 7.2) and stored overnight at −20° C.
The dilutions in DMSO are then diluted 50-fold in KR-buffer of which 5 μl is used in the assay, leading to a final compound concentration range in the assay from 10 μM to 0.316 nM.
After 60 min incubation at room temperature in the dark the FP signal is read. Fluorescence at 535 nm is measured using parallel and perpendicular filters to determine differences in rotation due to binding of the phosphorylated substrate peptide to the beads. Values are calculated as percentage of the difference in readout (ΔmPi) of the controls with and without ATP. EC50 values are determined by curve fitting of the experimental results using Activity Base.

[2] = pH 7.4, room temperature, about 1% DMSO, 24 h shaking, read-out: solubility
[3] = MK2 IMAP assay, 1 μM ATP, 30 min pre-incubation, 2 h room temperature, read-out: pEC50 value (converted)
[4] = Table 1, compound of Formula (I) with spiro ring, pH 7.4, read-out: Solubility pH 7.4 (mg/L), Formula (I)
[5] = Table 1, compound of Formula (I) with spiro ring, MK2 IMAP assay, read-out: pEC50, Formula (I) (converted)

T1 sequence (P49137 46-400 limits assumed): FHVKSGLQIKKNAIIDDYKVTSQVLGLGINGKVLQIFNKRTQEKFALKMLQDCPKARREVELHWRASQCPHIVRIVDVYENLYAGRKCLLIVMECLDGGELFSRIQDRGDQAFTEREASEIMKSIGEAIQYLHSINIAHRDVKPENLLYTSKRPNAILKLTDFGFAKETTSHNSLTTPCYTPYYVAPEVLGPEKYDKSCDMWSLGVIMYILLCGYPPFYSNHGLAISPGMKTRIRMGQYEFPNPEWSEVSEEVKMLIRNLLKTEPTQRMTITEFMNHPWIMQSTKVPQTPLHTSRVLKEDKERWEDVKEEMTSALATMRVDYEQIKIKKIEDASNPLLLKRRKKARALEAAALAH

Structure (SMILES)	solubility at 24 h [1, 2]	EC50 (MK2 enzyme; [3])	also measured
O=C1NCC2(CCCNC2)c2[nH]c(-c3ccnc(-c4cc5ccccc5o4)n3)cc21 (centres unmarked) [Example 5—1, 2′-(2-(benzofuran-2-yl)pyrimidin-4-yl)-5′,6′-dihydrospiro[piperidine-3,7′-pyrrolo[3,2-c]pyridin]-4′(1′H)-one]	≥ 50 mg/L	3.16 to 31.6 nM	
O=C1NCC2(CCNC2)c2[nH]c(-c3ccnc(-c4cccc(F)c4)n3)cc21 (centres unmarked) [17_4 Formula (I)]			solubility at 24 h ([1]; Table 2, compound of Formula (I) with amine-containing spiro ring, pH 7.4, read-out: Solubility pH 7.4 (mg/L), Formula (I)): 48 mg/L; EC50 (MK2 enzyme; Table 2, compound of Formula (I) with amine-containing spiro ring, MK2 IMAP assay, read-out: pEC50, Formula (I) (converted)): 12.6 nM
O=C1NCC2(CCNCC2)c2[nH]c(-c3ccnc(-c4ccc(Cl)cc4F)n3)cc21 [1—32, 2′-(2-(4-chloro-2-fluorophenyl)pyrimidin-4-yl)-5′,6′-dihydrospiro[piperidine-4,7′-pyrrolo[3,2-c]pyridin]-4′(1′H)-one]	≥ 50 mg/L	3.16 to 31.6 nM	
CC(C)(C)c1ccc(-c2nccc(-c3cc4c([nH]3)C3(CCNCC3)CNC4=O)n2)cc1 [1—22, 2′-(2-(4-tert-butylphenyl)pyrimidin-4-yl)-5′,6′-dihydrospiro[piperidine-4,7′-pyrrolo[3,2-c]pyridin]-4′(1′H)-one]	≥ 50 mg/L	3.16 to 31.6 nM	
O=C1NCCc2[nH]c(-c3ccnc(-c4ccccc4F)n3)cc21 [16_4 Formula (XV)]			solubility at 24 h ([1]; Table 1, comparison compound of Formula (XV) without spiro ring, pH 7.4, read-out: Solubility pH 7.4 (mg/L), Formula (XV)): 44 mg/L; EC50 (MK2 enzyme; Table 1, comparison compound of Formula (XV) without spiro ring, MK2 IMAP assay, read-out: pEC50, Formula (XV) (converted)): 1000 nM
NC(=O)c1cccc(-c2nccc(-c3cc4c([nH]3)C3(CCNCC3)CNC4=O)n2)c1 [1—29, 3-(4-(4′-oxo-1′,4′,5′,6′-tetrahydrospiro[piperidine-4,7′-pyrrolo[3,2-c]pyridine]-2′-yl)pyrimidin-2-yl)benzamide]	≥ 50 mg/L	3.16 to 31.6 nM	
O=C1NCC2(CCNC2)c2[nH]c(-c3ccnc(-c4cccc(F)c4)n3)cc21 (centres unmarked) [6—4, 2′-(2-(3-fluorophenyl)pyrimidin-4-yl)-5′,6′-dihydrospiro[pyrrolidine-3,7′-pyrrolo[3,2-c]pyridin]-4′(1′H)-one]	20 to 50 mg/L (≈ 55 to 138 µM)	3.16 to 31.6 nM	
CN1CCC2(CC1)CNC(=O)c1cc(-c3ccnc(-c4cc5ccccc5o4)n3)[nH]c12 [Example 2—1, 2′-(2-(benzofuran-2-yl)pyrimidin-4-yl)-1-methyl-5′,6′-dihydrospiro[piperidine-4,7′-pyrrolo[3,2-c]pyridin]-4′(1′H)-one]	20 to 50 mg/L (≈ 48.4 to 121 µM)		EC50 (MK2 enzyme): 3.16 to 31.6 nM
COc1cncc(-c2nccc(-c3cc4c([nH]3)C3(CCNCC3)CNC4=O)n2)c1 [1—3, 2′-(2-(5-methoxypyridin-3-yl)pyrimidin-4-yl)-5′,6′-dihydrospiro[piperidine-4,7′-pyrrolo[3,2-c]pyridin]-4′(1′H)-one]	20 to 50 mg/L (≈ 51.2 to 128 µM)	3.16 to 31.6 nM	
O=C1NCC2(CCNCC2)c2[nH]c(-c3ccnc(-c4cc5ccccc5o4)c3)cc21 [16_7 Formula (I)]			solubility at 24 h [1, 4]: 66 mg/L; EC50 (MK2 enzyme; [5]): 3.16 nM
CC(=O)NCCCN1CCC2(CC1)CNC(=O)c1cc(-c3ccnc(-c4cc5ccccc5o4)n3)[nH]c12 [3—2, N-(3-(2′-(2-(benzofuran-2-yl)pyrimidin-4-yl)-4′-oxo-1′,4′,5′,6′-tetrahydrospiro[piperidine-4,7′-pyrrolo[3,2-c]pyridine]-1-yl)propyl)acetamide]	≥ 50 mg/L	31.6 to 316 nM	
O=C1NCC2(CCNC2)c2[nH]c(-c3ccnc(-c4cnc5ccccc5c4)n3)cc21 (centres unmarked) [Example 6—1, 2′-(2-(quinolin-3-yl)pyrimidin-4-yl)-5′,6′-dihydrospiro[pyrrolidine-3,7′-pyrrolo[3,2-c]pyridin]-4′(1′H)-one]	20 to 50 mg/L (≈ 50.4 to 126 µM)	≤ 3.16 nM	
NCC(=O)N1CCC2(CC1)CNC(=O)c1cc(-c3ccnc(-c4cc5ccccc5o4)n3)[nH]c12 [10—1, 1-(2-aminoacetyl)-2′-(2-(benzofuran-2-yl)pyrimidin-4-yl)-5′,6′-dihydrospiro[piperidine-4,7′-pyrrolo[3,2-c]pyridin]-4′(1′H)-one]	≥ 50 mg/L	31.6 to 316 nM	
O=C1NCC2(CCNCC2)c2[nH]c(-c3ccnc(-c4cc(C(F)(F)F)cc(C(F)(F)F)c4)n3)cc21 [1—34, 2′-(2-(3,5-bis(trifluoromethyl)phenyl)pyrimidin-4-yl)-5′,6′-dihydrospiro[piperidine-4,7′-pyrrolo[3,2-c]pyridin]-4′(1′H)-one]	≥ 50 mg/L	31.6 to 316 nM	
O=C1NCC2(CCNC2)c2[nH]c(-c3ccnc(-c4cc5ccccc5o4)c3)cc21 (centres unmarked) [6—5, 2′-(2-(benzofuran-2-yl)pyridin-4-yl)-5′,6′-dihydrospiro[pyrrolidine-3,7′-pyrrolo[3,2-c]pyridin]-4′(1′H)-one]	≥ 50 mg/L	3.16 to 31.6 nM	
O=C1NCC2(CCNCC2)c2[nH]c(-c3ccnc(-c4nc5ccccc5s4)c3)cc21 [Example 9—1, 2′-(2-(benzo[d]thiazol-2-yl)pyridin-4-yl)-5′,6′-dihydrospiro[piperidine-4,7′-pyrrolo[3,2-c]pyridin]-4′(1′H)-one]	≥ 50 mg/L	3.16 to 31.6 nM	
O=C1NCC2(CCNCC2)c2[nH]c(-c3ccnc(-c4cccc(-c5ccccc5)c4)n3)cc21 [1—33, 2′-(2-(biphenyl-3-yl)pyrimidin-4-yl)-5′,6′-dihydrospiro[piperidine-4,7′-pyrrolo[3,2-c]pyridin]-4′(1′H)-one]	≥ 50 mg/L	31.6 to 316 nM	
O=C1NCC2(CCNCC2)c2[nH]c(-c3ccnc(-c4ccc5c(c4)OCO5)n3)cc21 [1—7, 2′-(2-(benzo[d][1,3]dioxol-5-yl)pyrimidin-4-yl)-5′,6′-dihydrospiro[piperidine-4,7′-pyrrolo[3,2-c]pyridin]-4′(1′H)-one]	20 to 50 mg/L (≈ 49.6 to 124 µM)	3.16 to 31.6 nM	
O=C1NCC2(CCNCC2)c2[nH]c(-c3ccnc(-c4cccc(C(F)(F)F)c4)n3)cc21 [1—35, 2′-(2-(3-(trifluoromethyl)phenyl)pyrimidin-4-yl)-5′,6′-dihydrospiro[piperidine-4,7′-pyrrolo[3,2-c]pyridin]-4′(1′H)-one]	≥ 50 mg/L	3.16 to 31.6 nM	
O=C(Nc1cc(-c2cc3c([nH]2)C2(CCNCC2)CNC3=O)ccn1)c1ccc(C(F)(F)F)cc1 [Example 12—1, N-(4-(4′-oxo-1′,4′,5′,6′-tetrahydrospiro[piperidine-4,7′-pyrrolo[3,2-c]pyridine]-2′-yl)pyridin-2-yl)-4-(trifluoromethyl)benzamide]	20 to 50 mg/L (≈ 42.6 to 107 µM)	≤ 3.16 nM	
O=C1NCC2(CCNCC2)c2[nH]c(-c3ccnc(-c4cnc5ccccc5c4)c3)cc21 [16_1 Formula (I)]			solubility at 24 h [1, 4]: 35 mg/L; EC50 (MK2 enzyme; [5]): 1.26 nM
O=C1NCC2(CCNCC2)c2[nH]c(-c3ccnc(-c4cnc5ccccc5c4)c3)cc21 [8—2, 2′-(2-(quinolin-3-yl)pyridin-4-yl)-5′,6′-dihydrospiro[piperidine-4,7′-pyrrolo[3,2-c]pyridin]-4′(1′H)-one]	20 to 50 mg/L (≈ 48.8 to 122 µM)	≤ 3.16 nM	
